The text below walks through data of ChEMBL document CHEMBL1143226, “Potent inhibitors of the hedgehog signaling pathway” (J Med Chem, 2008).

The assay can be described thus: Antagonist activity at Hedgehog receptor expressed in 10t1/2 cells by Gli-luciferase reporter gene assay. Type of assay: functional, cell-based. (In general: In a reporter assay the amount or activity of a reporter protein is the signal.)
For orientation: IC50 means the midpoint of a concentration-inhibition curve. The low end stands for greater potency in that assay, the high end for weaker potency in that assay. Regarding `CC(NC(=O)Nc1cccc(C(F)(F)F)c1)c1nc2ccccc2c(=O)n1-c1ccc(F)cc1` (stereo not given), the IC50 was 4700 nM. `CC(C)n1c(CNC(=O)Nc2cccc(C(F)(F)F)c2)nc2ccccc2c1=O` returned an IC50 of 4300 nM.

The compound `CCc1nc2ccccc2c(=O)n1-c1ccc(F)cc1` came in with an IC50 greater than 10000 nM.

Compound `O=C(NCc1nc2ccccc2c(=O)n1-c1ccc(F)cc1)Nc1ccc(Cl)c(C(F)(F)F)c1` registered an IC50 of 70 nM. For `O=C(NCc1nc2ccccc2c(=O)n1-c1ccc(F)cc1)Nc1cccc(C(F)(F)F)c1`, inhibition was half-maximal at 700 nM (IC50). To `COc1cc(NC(=O)NCc2nc3ccccc3c(=O)n2-c2ccc(F)cc2)cc(C(F)(F)F)c1` belongs 250 nM; to `CN(Cc1nc2ccccc2c(=O)[nH]1)C(=O)Nc1cccc(C(F)(F)F)c1`, greater than 10000 nM; to `CC(c1nc2ccccc2c(=O)n1-c1ccc(F)cc1)N(C)C(=O)Nc1cccc(C(F)(F)F)c1` (stereo not given), 1400 nM. The figure for `O=C(NCc1nc2ccccc2c(=O)n1-c1ccc(F)cc1)Nc1cc(Cl)nc(Cl)c1` is 110 nM.

Turning to `CNC(C)c1nc2ccccc2c(=O)n1-c1ccc(F)cc1` (stereo not given), the IC50 is greater than 10000 nM.
